Laboratory results from patent US7956062B2, “Reactive oxygen generating enzyme inhibitor with nitric oxide bioactivity and uses thereof” (Duke University, priority 2004, dated 2011).

Tests used:
[1] = tested on: Isolated cardiac myocytes from nNOS deficient rats; assay: Isolated cardiac myocytes: sarcomere length and systolic calcium transient responses; format: cell-based; conditions: versus baseline; for sarcomere length (SL), a measure of myocardial contraction (% change from baseline): FIG. 1A; for systolic calcium transient (% change from baseline): FIG. 1B
Method: Isolated cardiac myocytes from nNOS deficient rats (known to have increased xanthine oxidase activity), were evaluated for responses at baseline (BL or bl), then to allopurinol, then to nitrated allopurinol. The concentration of allopurinol used was 0.5×10^−3 M. The concentration of nitrated allopurinol used was 10^−4M. Evaluation was carried out for sarcomere length (SL), a measure of myocardial contraction, and for systolic calcium transient which drives myocardial contraction. The results for evaluation of sarcomere length are shown in FIG. 1A and results for evaluation of systolic calcium transient are shown in FIG. 1B.

dilated cardiomyopathy = assay: Patient case, dilated cardiomyopathy (Working Example II); format: in vivo; conditions: 300 mg PO BID, over the ensuing week
From the text: A person presents with a dilated cardiomyopathy and is begun on a standard regimen including ace inhibitors, diuretics, and digoxin with little improvement.

class 3 angina = assay: Patient case, class 3 angina (Working Example III); format: in vivo; conditions: 300 mg/day; over two weeks; class 3 before treatment
Method: A person with class 3 angina is begun on nitrated allopurinol (16), 300 mg/day.

[2] = tested on: crush wound to their left lower extremity, ischemic for six hours; assay: Patient case, ischemic crush wound with revascularization (Working Example IV); format: in vivo; conditions: emergency surgery
From the text: A person has a crush wound to their left lower extremity and undergoes emergency surgery.

sickle cell disease = assay: Patient case, sickle cell disease (Working Example V); format: in vivo; conditions: 300 mg/day, over the following year
Method: A person with sickle cell disease presents with pulmonary hypertension and LFT abnormalities. They had had four admissions to the emergency in the past year with painful crisis. They are begun n 300 mg/day of nitrated allopurinol (16) with a decrease in their pulmonary artery pressure over the following year from a mean of 35 mm Hg to 30 mm Hg.

hyperlipidemia = assay: Patient case, hyperlipidemia with calcification of coronaries and aorta (Working Example VI); format: in vivo; conditions: 300 mg/day; over the following two years
[3] = tested on: bleomycin-induced lung injury; assay: Patient case, bleomycin-induced lung injury (Working Example VII); format: in vivo; conditions: 300 PO BID; over the following week; on 50% oxygen; from 60 (on 100% oxygen)
From the text: A person with bleomycin-induced lung injury is begun on nitrated allopurinol (16), 300 PO BID. The PO2 improves from 60 (on 100% oxygen) to 65 mm Hg on 50% oxygen over the following week.

[4] = tested on: congestive heart failure and a dilated cardiomyopathy; assay: Patient case, congestive heart failure and dilated cardiomyopathy (Working Example IX); format: in vivo; conditions: 300 mg POQD, one week later
Method: A person with congestive heart failure and a dilated cardiomyopathy is begun on nitrated allopurinol (16), 300 mg POQD. One week later, their ejection fraction had improved from 35% to 40%, their blood pressure had decreased from 130/80 to 110/80, and […] pO2 has improved from 70 to 80 mm Hg on room air.

Parkinson's disease = assay: Patient case, Parkinson's disease (Working Example X); format: in vivo; conditions: 300 mg/day; after three weeks; treated with L-dopa
From the text: A person with Parkinson's disease treated with L-dopa has persistent tremor and motor problems.

Alzheimer's disease = assay: Patient case, Alzheimer's disease (Working Example XI); format: in vivo; conditions: 300 mg/day; after 3 months
Method: A person with Alzheimer's disease is begun on 300 mg/day nitrated allopurinol (16). Their memory and cognitive function stabilizes after 3 months.

leg pain and diabetes = assay: Patient case, leg pain and diabetes (Working Example XII); format: in vivo; conditions: 300 mg/day
ALS = assay: Patient case, ALS (Working Example XIII); format: in vivo; conditions: 300 mg/day; after three weeks
Method: A person with ALS with progressive deterioration, stabilizes after three weeks at 300 mg/day of nitrated allopurinol (16).

[5] = tested on: asthmatic with frequent exacerbations; assay: Patient case, asthma (Working Example XIV); format: in vivo; conditions: 300 mg/day
Method: A asthmatic with frequent exacerbations is begun on 300 mg/day nitrated allopurinol (16).

Oc1ncnc2[nH]ncc12 [allopurinol, reference compound]
sarcomere length (SL), a measure of myocardial contraction (% change from baseline) ([1]; allopurinol 0.5×10^−3 M): rise | systolic calcium transient (% change from baseline) ([1]; allopurinol 0.5×10^−3 M): rise

O=c1c2cnn(CCCO[N+](=O)[O-])c2ncn1CCCO[N+](=O)[O-] [nitrated allopurinol (16), 1,5-bis(3-nitrooxypropyl)-1,5-dihydro-4H-pyrazolo[3,4-d]pyrimidin-4-one]
sarcomere length (SL), a measure of myocardial contraction (% change from baseline) ([1]; nitrated allopurinol 10^−4M): increase obtained for nitrated allopurinol being greater than increase obtained for allopurinol | systolic calcium transient (% change from baseline) ([1]; nitrated allopurinol 10^−4M): increase obtained for nitrated allopurinol being greater than increase obtained for allopurinol | shortness of breath (dilated cardiomyopathy): decrease in a shortness of breath | left ventricular function (dilated cardiomyopathy; on standard regimen with little improvement): improvement of left ventricular function | angina classification (class 3 angina): improved to class 2 | aggravation of injury following revascularization [2]: no aggravation of injury following revascularization | LFT abnormalities (sickle cell disease): resolve | painful crisis (sickle cell disease; four admissions with painful crisis in the past year): only one painful crisis | pulmonary artery pressure (mean) (sickle cell disease; from a mean of 35 mm Hg): 30 mm Hg | disease (calcification of coronaries and aorta) (hyperlipidemia): mild regression of their disease | PO2 [3]: 65 mm Hg | symptoms on angina [4]: decreased | ejection fraction ([4]; from 35%): 40% | blood pressure ([4]; from 130/80): 110/80 | pO2 ([4]; on room air, from 70): 80 mm Hg | symptoms (persistent tremor and motor problems) (Parkinson's disease): symptoms improve | memory and cognitive function (Alzheimer's disease): stabilizes | pain (leg pain) (leg pain and diabetes): pain decreases | distance they can walk (leg pain and diabetes; unresponsive to treatment before): improves | progressive deterioration (ALS): stabilizes | steroid use [5]: successfully tapered
